Measurements: paper PMC12470104, “The Achilles Heel of Protein Biochemistry: Insolubility of Recombinant Proteins—A Case Study About Producing a Rice Enzyme” (International Journal of Molecular Sciences, 2025)

System: T1, OsAPSE
T1 construct: GH27 42-387, ricin-B-like 498-563, GH-all-beta 563-649; catalytic D226, D282
Experiment: discontinuous pNP release assay, A405; Hanes-Woolf and Eadie-Hofstee
Assay type: biochemical, Oryza sativa subsp. japonica
Conditions: 50 mM Tris-HCl pH 8, 25 °C; 50 µg/mL enzyme; protein refolded from inclusion bodies (authors suspect suboptimal folding); 1-20 mM substrate, Km extrapolated above tested range

O=[N+]([O-])c1ccc(O[C@H]2O[C@H](CO)[C@H](O)[C@H](O)[C@H]2O)cc1 [pNP-α-D-Galp]
Km: 44 mM
